This note sets out measurements from publication PMC9785969, “Synthesis, Biological Evaluation, and Molecular Dynamics of Carbothioamides Derivatives as Carbonic Anhydrase II and 15-Lipoxygenase Inhibitors” (Molecules, 2022).

Entries after “also recorded” stand apart in the source; their conditions may differ. Like-named read-outs stand apart in the source and are kept apart here.

One series concerns the target T1, 15-lipoxygenase (15-LOX) (Glycine max, UniProt P08170).
T1 sequence (P08170 1-839): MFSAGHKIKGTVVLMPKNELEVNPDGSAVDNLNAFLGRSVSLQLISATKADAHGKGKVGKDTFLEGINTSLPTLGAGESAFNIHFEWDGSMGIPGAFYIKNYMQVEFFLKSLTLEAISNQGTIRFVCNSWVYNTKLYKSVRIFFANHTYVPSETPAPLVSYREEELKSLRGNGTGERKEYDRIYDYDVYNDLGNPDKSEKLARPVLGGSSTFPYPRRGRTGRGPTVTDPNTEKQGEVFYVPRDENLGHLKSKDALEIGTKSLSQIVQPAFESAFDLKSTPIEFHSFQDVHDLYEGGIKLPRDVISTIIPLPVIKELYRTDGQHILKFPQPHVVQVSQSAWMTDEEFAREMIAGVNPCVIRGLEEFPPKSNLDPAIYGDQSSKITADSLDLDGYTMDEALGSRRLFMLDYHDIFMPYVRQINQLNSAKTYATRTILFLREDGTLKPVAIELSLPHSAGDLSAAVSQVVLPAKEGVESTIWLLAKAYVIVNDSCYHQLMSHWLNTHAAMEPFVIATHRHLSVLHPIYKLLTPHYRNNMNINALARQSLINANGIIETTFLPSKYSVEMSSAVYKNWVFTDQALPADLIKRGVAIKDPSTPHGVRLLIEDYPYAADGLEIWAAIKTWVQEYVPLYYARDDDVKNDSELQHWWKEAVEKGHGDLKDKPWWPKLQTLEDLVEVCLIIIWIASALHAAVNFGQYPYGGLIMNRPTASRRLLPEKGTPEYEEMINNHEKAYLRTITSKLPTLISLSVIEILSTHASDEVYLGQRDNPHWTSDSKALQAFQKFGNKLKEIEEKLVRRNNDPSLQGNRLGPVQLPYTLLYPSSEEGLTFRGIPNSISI
The experiment in a line: Lipoxygenase (15-LOX) inhibition assay, linoleic acid substrate, absorbance 234 nm. Format: biochemical. As to conditions: for IC50: mean of three experiments, read-out: 15-LOX IC50 ± SEM; for inhibition at 100 µM: final concentration of 100 μM. As to the method:
The lipoxygenase activity was determined with the some modifications to the reported method. The compounds were first screened at 0.1 mM. Assay buffer was made containing 100 mM KH2PO4 and the pH was adjusted at 8.0. Initially, 145 µL of assay buffer was added in each well of a 96-well plate, followed by the addition of 10 µL of 15-LOX enzyme (42.5 units/well). Then, 20 µL of test compound was added in each well and incubated for 10 min at 25 °C. Absorbance was measured at 234 nm by multimode micro-plate reader, FLUOstar Omega, Germany as a pre-read value. Further reaction was carried out by adding of 25 µL of substrate linoleic acid and incubation for 10 min at 25 °C. After incubation, absorbance was calculated again at 234 nm as after read. […] The IC50 values for all experiments were determined using a nonlinear curve fitting tool and all experiments were carried out in triplicate format in GraphPad PRISM 5.0 (GraphPad, San Diego, CA, USA).

In series [1] the target is bovine carbonic anhydrase II (b-CA II) (Bos taurus, UniProt P00921). The experiment in a line: Carbonic anhydrase (b-CA II) inhibition assay, p-nitrophenyl acetate hydrolysis. As to conditions: for selectivity for b-CA II over 15-LOX: b-CA II vs 15-LOX. In kind it is biochemical. As to the method:
Carbonic anhydrase (b-CA II) inhibition activity was determined according to the previously reported protocol. IC50 values were calculated through GraphPad PRISM 5.0 Software Inc., San Diego, CA, USA.
This method is based on the spectrophotometric determination of hydrolytic product of substrate p-nitrophenyl acetate substrate. Assay volume was kept at 100 µL, comprised of 60 µL of Tris-sulfate buffer (50 mM, 0.1 mM ZnCl2 at pH 7.6), 10 µL of test compound with concentration of 50 µM and 10 µL (50 U) of b-CA II. The reaction mixture was incubated at 25 °C for 10 min and […]
Reaction was initiated by addition of 20 µL of p-nitrophenyl acetate (6mM) as substrate and incubated for further 30 min. […]
test compounds. All experiments were performed in triplicate and dose response curves were […]
(1 picture or pasted object on this page, not shown here)

Setting [2] is: mean of three experiments, read-out: b-CA II IC50 ± SEM.

Sequence of bovine carbonic anhydrase II (b-CA II) (P00921 whole entry): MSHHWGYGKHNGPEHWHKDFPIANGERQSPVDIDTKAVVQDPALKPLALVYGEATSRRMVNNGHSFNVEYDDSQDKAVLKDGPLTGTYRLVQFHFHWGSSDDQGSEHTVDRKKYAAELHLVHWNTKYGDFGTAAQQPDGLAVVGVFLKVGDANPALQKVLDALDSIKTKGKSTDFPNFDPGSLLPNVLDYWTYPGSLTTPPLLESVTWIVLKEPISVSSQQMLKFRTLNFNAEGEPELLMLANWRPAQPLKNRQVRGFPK

On to `COc1cc2cc(OC)c(OC)c(/C=N/NC(N)=S)c2cc1OC` [3a], for which the melting point came out at 240 °C. On 15-lipoxygenase (15-LOX), the IC50 is 0.37 ± 0.02 µM. Further, the IC50 in series [1] (setting [2]) is 0.31 ± 0.01 µM.
Consider `C#CCN(C)c1ccc(/C=N/NC(N)=S)cc1` [3b], for which the melting point is 245 °C. The same compound showed an inhibition at 100 µM at 15-lipoxygenase (15-LOX) of less than 50%. In addition, in series [1], the “selectivity for b-CA II over 15-LOX” value is “selective towards b-CA II; also recorded: selective inhibitors of CA II”. Further, in series [1] (setting [2]), the IC50 was 4.97 ± 0.16 µM.
As for `NC(=S)N/N=C/c1ccccc1F` [3c], the values for the IC50 (on 15-lipoxygenase (15-LOX); in series [1] (setting [2])) were 0.16 ± 0.01 µM and 2.02 ± 0.12 µM, respectively.
`NC(=S)N/N=C/c1cc([N+](=O)[O-])ccc1Cl` [3d] registered a melting point of 248 °C. The compound also displayed an inhibition at 100 µM against 15-lipoxygenase (15-LOX) of less than 50%. Also, the “selectivity for b-CA II over 15-LOX” value in series [1] was “selective towards b-CA II; also recorded: selective inhibitors of CA II”. In addition, the IC50 in series [1] (setting [2]) came to 0.28 ± 0.01 µM.
In the case of `COc1ccc(/C=N/NC(N)=S)cc1O` [3e], the IC50 was 1.34 ± 0.14 µM at 15-lipoxygenase (15-LOX) and 0.38 ± 0.02 µM in series [1] (setting [2]).
`NC(=S)N/N=C/c1ccc(Br)s1` [3f] registered a melting point of 243 °C. In addition, the IC50 at 15-lipoxygenase (15-LOX) amounted to 0.82 ± 0.19 µM. Moreover, in series [1] (setting [2]), the IC50 was found to be 10.2 ± 0.21 µM.
On 15-lipoxygenase (15-LOX), `NC(=S)N/N=C/c1c(F)cccc1Cl` [3g] gave an inhibition at 100 µM of less than 50%. Besides, in series [1], the “selectivity for b-CA II over 15-LOX” value was “selective towards b-CA II; also recorded: selective inhibitors of CA II”. Further, the IC50 in series [1] (setting [2]) is 0.84 ± 0.05 µM.
Consider `NC(=S)N/N=C/c1cccc(F)c1` [3h], for which the IC50 stood at 0.14 ± 0.01 µM on 15-lipoxygenase (15-LOX) and 0.13 ± 0.01 µM in series [1]. For the same compound, the “fold higher potential towards b-CA II compared with standard inhibitor acetazolamide” value in series [1] (vs acetazolamide) was “≈ 7 fold”.

A word on the IC50: it is the concentration at which inhibition is half-maximal. The melting point is the temperature, or range, at which the solid turns liquid. Usually inhibition stands for the change of the read-out against control, counted positive when it falls. High values mean strong suppression, low ones little suppression.
